How the values were obtained:
[1] = tested on: tau phosphorylated on Thr212 and Ser214; assay: Western blot of tau phosphorylated on Thr212 and Ser214 (AT100 antibody) in 3×Tg-AD cortical cultures; format: cell-based, mouse; conditions: 3×Tg transgenic cultures, 50 nM, 3 to 7 days; p<0.001, n=3
Description: (§1) In order to carry out the experiments of the present invention, either an in vitro cortical neuronal model with simultaneous overexpression of tau and β-amyloid, obtained from a model of Alzheimer's disease in triple-transgenic (3×Tg-AD or 3×Tg) mice, obtainable via the detailed procedure in the international patent application WO2003/053136 and provided by the title holders of this application, or an in vitro cortical neuronal model obtained from non-transgenic (Non Tg) mice.
(§2) The effect of gymnodimine on overexpression of β-amyloid and tau hyperphosphorylation was determined by the Western blot technique. Primary neuronal cultures were treated with 50 nM gymnodimine for between 3 and 7 days of culture. The cells were then processed following the usual protocols for Western blot. For Western blot studies, protein expression was evaluated using 6E10 anti-β-amyloid primary antibodies at a dilution of 1:500, AT8 anti-Tau (tau phosphorylated on Ser202, dilution 1:1000) and AT100 anti-tau (tau phosphorylated on Thr212 and Ser214, dilution 1:1000). […] Total protein concentration was determined by Bradford's method using bovine albumin as standard. […] The membranes were incubated with the primary antibodies, washed, and then incubated with a secondary antibody linked to HRP; the immunoreactivity was detected by chemiluminescence. […]

[2] = tested on: tau phosphorylated on Ser202; assay: Western blot of tau phosphorylated on Ser202 (AT8 antibody) in 3×Tg-AD cortical cultures; format: cell-based, mouse; conditions: 3×Tg transgenic cultures, 50 nM, 3 to 7 days; p<0.05, n=3
Description: as §1, §2

β-amyloid = assay: Western blot of intracellular β-amyloid (6E10 antibody) in 3×Tg-AD cortical cultures; format: cell-based, mouse; conditions: 3×Tg-AD neocortical cultures, 50 nM, 3 to 7 days; p<0.005, n=3
Description: as §1, §2

total tau = assay: Western blot of total tau basal levels (Tau46 antibody) in control neurones; format: cell-based, mouse; conditions: control (non-transgenic) neurones, 50 nM; mean ± standard error, two experiments
Description: (§3) The effect of gymnodimine on overexpression of β-amyloid and tau hyperphosphorylation was determined by the Western blot technique. Primary neuronal cultures were treated with 50 nM gymnodimine for between 3 and 7 days of culture. The cells were then processed following the usual protocols for Western blot. For Western blot studies, protein expression was evaluated using 6E10 anti-β-amyloid primary antibodies at a dilution of 1:500, AT8 anti-Tau (tau phosphorylated on Ser202, dilution 1:1000) and AT100 anti-tau (tau phosphorylated on Thr212 and Ser214, dilution 1:1000). For Western blot assays, the neuronal cultures treated with gymnodimine were washed with cold phosphate buffer and lysed in 50 mM Tris-HCl buffer (pH 7.4) containing 150 mM NaCl, 1 mM EDTA, 1% Triton X-100, 2 mM DTT, 2.5 mM PMSF, 40 mg/ml aprotinin, 4 mg/ml leupeptin, 5 mM NaF, 1 mM Na3VO4, 1 mg/ml pepstatin A and 1 mg/ml benzamidine. Total protein concentration was determined by Bradford's method using bovine albumin as standard. […] The membranes were incubated with the primary antibodies, washed, and then incubated with a secondary antibody linked to HRP; the immunoreactivity was detected by chemiluminescence. […]
(§4) The effect of gymnodimine on basal phosphorylation of tau was determined by Western blot techniques. […]

[3] = cited from earlier work
[4] = tested on: tau phosphorylated on site Ser202; assay: Western blot of basal tau phosphorylated on Ser202 in control neurones; format: cell-based, mouse; conditions: control (non-transgenic) neurones, 50 nM
Description: as §3, §4

cortical neurones = assay: Alamar Blue fluorescence viability assay in primary cortical cultures; format: cell-based, mouse; conditions: for Viability of cortical neurones: 72 hours in culture, mean ± standard error, three experiments
Description: as §1
The primary cortical cultures in the present invention were obtained from 3×Tg-AD mouse embryos of 15-17 days gestation and the wild cultures were obtained from non-3×Tg control mouse embryos of the same strain. The effect of the compounds used in this invention on cellular viability was estimated by a fluorescence assay using the Alamar Blue viability indicator. To carry out the assay, primary cortical cultures seeded on 96-well plates were used. The neuronal cells were incubated with gymnodimine, which was added to the culture medium at different concentrations, and the effect on in vitro neuronal viability at different treatment times was determined. The maximum concentration of gymnodimine evaluated was 100 nM and the concentration of Alamar blue was 10%. The volume of the reaction used was 200 μl. Fluorescence was measured at wavelengths of 530 nm (excitation) and 590 nm (emission).

[5] = tested on: nicotinic acetylcholine receptors; conditions: blocking effect; Kharrat et al. 2008, Dragunow et al. 2005; cited from earlier work

SMILES: CC1=C[C@@H](C2=C(C)[C@@H]3/C=C(\C)[C@@H](O)CC[C@H]4C[C@@H](C)[C@@H](O4)/C(C)=C/CCC4=NCCC[C@@]43CC2)OC1=O [Gymnodimine, gymnodimine]
- Tau phosphorylation on Thr212 and Ser214 (Western blot, AT100) [1]: significant reduction of tau phosphorylation
- Tau phosphorylation on Ser202 (Western blot, AT8) [2]: significant reduction of tau phosphorylation
- Expression of intracellular β-amyloid (Western blot, 6E10) (β-amyloid): significant reduction of overexpression of β-amyloid
- Total tau basal levels (total tau): 111 ± 3.9% control
- Toxicity intracerebrally versus intraperitoneally ([3]; introduced intracerebrally compared with intraperitoneally): much higher when it is introduced intracerebrally
- Toxicity when orally administered ([3]; oral administration, Munday et al. 2004): significantly reduced toxicity
- Levels of tau phosphorylated on site Ser202 [4]: 95% control
- Viability of cortical neurones (cortical neurones; 2.5 nM): 97.0 ± 4.9 % control
- Viability of cortical neurones (cortical neurones; 5 nM): 102.8 ± 0.3 % control
- Viability of cortical neurones (cortical neurones; 10 nM): 105.6 ± 5.9 % control
- Viability of cortical neurones (cortical neurones; 25 nM): 105.1 ± 1.09 % control
- Viability of cortical neurones (cortical neurones; 50 nM): 102.9 ± 1.4 % control
- Viability of cortical neurones (cortical neurones; 100 nM): 101.8 ± 1.7 % control
- Effect on cell viability (in words) (cortical neurones; up to maximum concentration of 100 nM, neuronal model): does not cause a reduction in cell viability
- Binding to nicotinic acetylcholine receptors [5]: high affinity binding
